According to patent US7070814B2, “Bioavailability / bioefficacy enhancing activity of Cuminum cyminum and extracts and fractions thereof” (Council of Scientific and Industrial Research, priority 2002, dated 2006):

Experiment: Bioavailability enhancement: drug, nutraceutical or herbal product given alone or with bioenhancer (BE) to fasted rats, blood (plasma) levels 0-24 hrs by HPLC
Settings: drug + BE from Cuminum cyminum (extract 16 mg/kg or fraction, rats) vs drug alone
Description: • 1. Bioenhancers (BEs) from Cuminum cyminum means either the aqueous, or 50% alcoholic extract or fractions No. 1 to 5. • 2. Piperine as Bioenhancer (BE) from Piper species means the molecule with characteristics as described in Example 2 of this invention. • 3.
• (i) Bioenhancer (BE) from Cuminum cyminum • Extract: 16 mg/kg body weight (Rats) • Fraction No. 1: 02–5 mg/kg body weight (rats) • Fraction No.2: 13-mg/kg body weight (Rats) • Fraction No. 3: 8 mg/kg body weight (Rats) • Fraction No. 4: 5 mg/kg body weight (Rats) • Fraction No. 5: 2.5 to 5 mg/kg body weight (Rats) • (ii) Piperine: 8 mg/kg body weight (Rats) As an example of an experiment in Rat (fasted): • Drug: Rifampicin, 40 mg/kg • BE (Cuminum cyminum): Doses as in Example No. 5 above. • BE (Cuminum cyminum)+Piperine: Doses as in Example No. 5 above.
Experimental procedure: Drug alone/or in combination with BE was administered to rats as per the following design: • Group 1: Control • Group 2: Rifampicin alone • Group 3: BE alone • Group 4: Rifampicin+BE (Cuminum cyminum) • Group 5: Rifampicin+BE (C. cyminum+piperine)
Blood from control/treated animals at predetermined intervals (0–24 hrs) (Total 14 timings). Rifampicin was extracted from the blood (plasma) using dichloromethane. The concentration of rifampicin in the samples was determined using HPLC (Model: Shimadzu 1080 BP); PDA detector; Mobile phase: phosphate buffer: acetonitile (40:60); Flow rate 1.0 ml/min. Column RP 18.
Control and BE only groups were employed to study the interference of plasma component and the bioenhancer used.
List of drugs, nutraceuticals, herbal formulations cited below as some of the example for the purpose of present invention.

| Compound | % Enhancement in bioavailability, BE from Cuminum cyminum [%] |
| --- | --- |
| Cc1nnc2n1-c1ccc(Cl)cc1C(c1ccccc1)=NC2 [Alprazolam] | 60 |

Same assay, conditions: drug + piperine (8 mg/kg, rats) vs drug alone

| Compound | % Enhancement in bioavailability, Piperine as BE [%] |
| --- | --- |
| Cc1nnc2n1-c1ccc(Cl)cc1C(c1ccccc1)=NC2 [Alprazolam] | 98 |

Same assay, conditions: drug + piperine + active molecule (rats) vs drug alone

| Compound | % Enhancement in bioavailability, Piperine + Active molecule [%] |
| --- | --- |
| Cc1nnc2n1-c1ccc(Cl)cc1C(c1ccccc1)=NC2 [Alprazolam] | 104 |

Same assay, conditions: rat, in vivo

| Compound | % Enhancement in bioavailability, Piperine + Active molecule | % Enhancement in bioavailability, Piperine + BE from Cuminum cyminum |
| --- | --- | --- |
| O=c1[nH]cc(F)c(=O)[nH]1 [5-Fluorouracil] | 435% | – |
| Nc1nc2c(ncn2COCCO)c(=O)[nH]1 [Acyclovir] | 98% | – |
| NCC[C@H](O)C(=O)N[C@@H]1C[C@H](N)[C@@H](O[C@H]2O[C@H](CN)[C@@H](O)[C@H](O)[C@H]2O)[C@H](O)[C@H]1O[C@H]1O[C@H](CO)[C@@H](O)[C@H](N)[C@H]1O [Amikacin] | Nil | – |
| CCOC(=O)C1=C(COCCN)NC(C)=C(C(=O)OC)C1c1ccccc1Cl (stereo not shown) [Amlodipine] | 103% | – |
| CC1(C)S[C@@H]2[C@H](NC(=O)[C@H](N)c3ccc(O)cc3)C(=O)N2[C@H]1C(=O)O [Amoxycillin] | 98% | – |
| CC[C@H]1OC(=O)[C@H](C)[C@@H](O[C@H]2C[C@@](C)(OC)[C@@H](O)[C@H](C)O2)[C@H](C)[C@@H](O[C@@H]2O[C@H](C)C[C@H](N(C)C)[C@H]2O)[C@](C)(O)C[C@@H](C)CN(C)[C@H](C)[C@@H](O)[C@]1(C)O [Azithromycin] | 97% | – |
| CN(Cc1cc(Br)cc(Br)c1N)C1CCCCC1 [Bromhexine] | 90% | – |
| CC1=C(C(=O)O)N2C(=O)[C@@H](NC(=O)[C@H](N)c3ccc(O)cc3)[C@H]2SC1 [Cefadroxil] | – | 79% |
| CO/N=C(\C(=O)N[C@@H]1C(=O)N2C(C(=O)O)=C(CSc3nc(=O)c(O)nn3C)CS[C@H]12)c1csc(N)n1 [Cefatrioxone] | – | Nil |
| C=CC1=C(C(=O)O)N2C(=O)[C@@H](NC(=O)/C(=N\OCC(=O)O)c3csc(N)n3)[C@H]2SC1 [Cefixime] | – | Nil |
| CN/C(=N/CCSCc1nc[nH]c1C)NC#N [Cimetidine] | – | 105% |
| Cc1onc(-c2ccccc2Cl)c1C(=O)N[C@@H]1C(=O)N2[C@@H]1SC(C)(C)[C@@H]2C(=O)O [Cloxacillin] | 95% | – |
| N[C@@H]1CON=C1O [Cycloserine] | 90% | – |
| Nc1ccc(S(=O)(=O)c2ccc(N)cc2)cc1 [Dapsone] | 75% | – |
| O=C(O)Cc1ccccc1Nc1c(Cl)cccc1Cl [Diclofenac] | 108% | – |
| COc1cccc2c1C(=O)c1c(O)c3c(c(O)c1C2=O)C[C@@](O)(C(=O)CO)C[C@@H]3O[C@H]1C[C@H](N)[C@H](O)[C@H](C)O1 [Doxorubicin] | 103% | – |
| CC[C@H]1OC(=O)[C@H](C)[C@@H](O[C@H]2C[C@@](C)(OC)[C@@H](O)[C@H](C)O2)[C@H](C)[C@@H](O[C@@H]2O[C@H](C)C[C@H](N(C)C)[C@H]2O)[C@](C)(O)C[C@@H](C)C(=O)[C@H](C)[C@@H](O)[C@]1(C)O [Erythromycin] | 95% | – |
| CC[C@@H](CO)NCCN[C@@H](CC)CO [Ethambutol] | Nil | – |
| CCc1cc(C(N)=S)ccn1 [Ethionamide] | 65% | – |
| O=C(CCCN1CCC(O)(c2ccc(Cl)cc2)CC1)c1ccc(F)cc1 [Haloperidol] | Nil | – |

| Compound | % Enhancement in bioavailability, Piperine + Active molecule | % Enhancement in bioavailability, Piperine + BE from Cuminum cyminum |
| --- | --- | --- |
| NNC(=O)c1ccncc1 [Isoniazid] | Negligible | – |
| CC(=O)N1CCN(c2ccc(OCC3COC(Cn4ccnc4)(c4ccc(Cl)cc4Cl)O3)cc2)CC1 (stereo not shown) [Ketoconazole] | 156% | – |
| NCCCC[C@H](N[C@@H](CCc1ccccc1)C(=O)O)C(=O)N1CCC[C@H]1C(=O)O [Lisinopril] | 98% | – |
| CN(Cc1cnc2nc(N)nc(N)c2n1)c1ccc(C(=O)N[C@@H](CCC(=O)O)C(=O)O)cc1 [Methotrexate] | 30% | – |
| COc1c(C)c2c(c(O)c1C/C=C(\C)CCC(=O)OCCN1CCOCC1)C(=O)OC2 [Mycophenolate Mofeit, Mycophenolate mofetil] | Nil | – |
| CS(=O)(=O)Nc1ccc([N+](=O)[O-])cc1Oc1ccccc1 [Nimesulide] | 150% | – |
| CCn1cc(C(=O)O)c(=O)c2cc(F)c(N3CCNCC3)cc21 [Norfloxacin] | Negligible | – |
| CC1COc2c(N3CCN(C)CC3)c(F)cc3c(=O)c(C(=O)O)cn1c23 (stereo not shown) [O-floxacin, Ofloxacin] | 73% | – |
| COc1ccc2[nH]c([S+]([O-])Cc3ncc(C)c(OC)c3C)nc2c1 (stereo not shown) [Omeprazole] | – | Nil |
| CN1C(C(=O)Nc2ccccn2)=C(O)c2ccccc2S1(=O)=O [Piroxicam] | 107% | – |
| CC(C)NCC(O)COc1cccc2ccccc12 (stereo not shown) [Propranolol] | 210% | – |
| NC(=O)c1cnccn1 [Pyrazinamide] | Nil | – |
| CNC(=C[N+](=O)[O-])NCCSCc1ccc(CN(C)C)o1 [Ranitidine] | – | 89% |
| CO[C@H]1/C=C/O[C@@]2(C)Oc3c(C)c(O)c4c(O)c(c(/C=N/N5CCN(C)CC5)c(O)c4c3C2=O)NC(=O)/C(C)=C\C=C\[C@H](C)[C@H](O)[C@@H](C)[C@@H](O)[C@@H](C)[C@H](OC(C)=O)[C@@H]1C [Rifampicin] | 366% | – |
| CS(=O)(=O)c1ccc(C2=C(c3ccccc3)C(=O)OC2)cc1 [Rofecoxib] | Negligible | – |
| CC[C@H]1OC(=O)[C@H](C)[C@@H](O[C@H]2C[C@@](C)(OC)[C@@H](O)[C@H](C)O2)[C@H](C)[C@@H](O[C@@H]2O[C@H](C)C[C@H](N(C)C)[C@H]2O)[C@](C)(O)C[C@@H](C)/C(=N\OCOCCOC)[C@H](C)[C@@H](O)[C@]1(C)O [Roxythromycin] | 103% | – |
| CC(C)(C)NCC(O)c1ccc(O)c(CO)c1 (stereo not shown) [Salbutamol] | 85% | – |
| C=CC[C@@H]1/C=C(\C)C[C@H](C)C[C@H](OC)[C@H]2O[C@@](O)(C(=O)C(=O)N3CCCC[C@H]3C(=O)O[C@H](/C(C)=C/[C@@H]3CC[C@@H](O)[C@H](OC)C3)[C@H](C)[C@@H](O)CC1=O)[C@H](C)C[C@@H]2OC [Tacrolimus] | 117% | – |
| Cn1c(=O)c2[nH]cnc2n(C)c1=O [Theophylline] | 75% | – |
| Cc1cn([C@H]2C[C@H](N=[N+]=[N-])[C@@H](CO)O2)c(=O)[nH]c1=O [Zidovudine] | 415% | – |
